Laboratory results as given in ChEMBL document CHEMBL6087404, “Naphthoindole-2-carboxamides as a lipophilic chemotype of hetarene-anthraquinones potent against P-gp resistant tumor cells” (Eur J Med Chem, 2025).
The source made the active and inactive calls. The calls are words filed in the database; no cut-off is given here.

Columns and labels:
[1] = Drug uptake in nuclear membrane of human HCT-116 cells at 3 uM incubated for 1 hr by confocal microscopy; assay type: ADME, cell membranes; details: hct-116, 1 h
[2] = Drug uptake in lysosome of human HCT-116 cells at 3 uM incubated for 1 hr by LysoTracker Deep Red dye based confocal microscopy; assay type: ADME, subcellular; details: hct-116, 1 h
K562/4 [3] = experiment: Induction of apoptosis in human K562/4 cells assessed as early apoptotic cells at 1 uM incubated for 48 hrs by Annexin V-FITC/PI staining based flow cytometry (reference value: 1 %); assay type: functional
K562 [4] = experiment: Effect on cell cycle distribution in human K562 cells assessed as cells with fragmented DNA at sub-G1 phase at 0.75 uM incubated for 72 hrs by PI staining based flow cytometry (reference value: 3 %); assay type: functional
K562 [5] = experiment: Induction of apoptosis in human K562 cells assessed as late apoptotic cells at 1 uM incubated for 48 hrs by Annexin V-FITC/PI staining based flow cytometry (reference value: 2.5 %); assay type: functional
[6] = Drug uptake in cytoplasmic membrane of human HCT-116 cells at 3 uM incubated for 1 hr by confocal microscopy; assay type: ADME, cell membranes, Cytoplasm membrane; details: hct-116, 1 h
DNA = experiment: Binding affinity to pBR322 plasmid DNA (unknown origin) assessed as effect on electrophoretic mobility of DNA at 1 to 40 uM incubated for 30 mins; assay type: nucleic-acid assay; details: Escherichia coli, dose 1-40 µM
K562/4 [7] = experiment: Effect on cell cycle distribution in human K562/4 cells assessed as cells with fragmented DNA at sub-G1 phase at 0.75 uM incubated for 48 hrs by PI staining based flow cytometry (reference value: 4 %); assay type: functional
K562 [8] = experiment: Effect on cell cycle distribution in human K562 cells assessed as cells with fragmented DNA at sub-G1 phase at 1 uM incubated for 72 hrs by PI staining based flow cytometry (reference value: 3 %); assay type: functional
K562/4 [9] = experiment: Induction of apoptosis in human K562/4 cells assessed as viable cells at 1 uM incubated for 48 hrs by Annexin V-FITC/PI staining based flow cytometry (reference value: 10.8 %); assay type: functional; details: read-out: Activity
K562 [10] = experiment: Effect on cell cycle distribution in human K562 cells assessed as cells with fragmented DNA at sub-G1 phase at 1 uM incubated for 48 hrs by PI staining based flow cytometry (reference value: 3 %); assay type: functional
[11] = Resistance index, ratio of IC50 for human K562/4 cells to IC50 for human K562 cells; assay type: functional
K562 [12] = experiment: Effect on cell cycle distribution in human K562 cells assessed as cells with fragmented DNA at sub-G1 phase at 1 uM incubated for 24 hrs by PI staining based flow cytometry (reference value: 3 %); assay type: functional
K562 [13] = experiment: Induction of apoptosis in human K562 cells assessed as viable cells at 1 uM incubated for 48 hrs by Annexin V-FITC/PI staining based flow cytometry (reference value: 85.9 %); assay type: functional; details: read-out: Activity
K562/4 [14] = experiment: Induction of apoptosis in human K562/4 cells assessed as viable cells at 1 uM incubated for 24 hrs by Annexin V-FITC/PI staining based flow cytometry (reference value: 86 %); assay type: functional; details: read-out: Activity
K562/4 [15] = experiment: Effect on cell cycle distribution in human K562/4 cells assessed as cells with fragmented DNA at sub-G1 phase at 1 uM incubated for 24 hrs by PI staining based flow cytometry (reference value: 4 %); assay type: functional
K562 [16] = experiment: Induction of apoptosis in human K562 cells assessed as early apoptotic cells at 1 uM incubated for 48 hrs by Annexin V-FITC/PI staining based flow cytometry (reference value: 0.8 %); assay type: functional
[17] = Drug uptake in human HCT-116 cells at 3 uM incubated for 10 mins by confocal microscopy; assay type: ADME, cell-based; details: hct-116, 10 min
K562 [18] = experiment: Antiproliferative activity against human K562 cells incubated for 72 hrs by MTT assay; assay type: functional, cell-based; details: K562, 72 h
[19] = Selectivity index, ratio of IC50 for human hFB-hTERT6 cells to IC50 for human K562 cells; assay type: toxicity; details: hFB-hTERT6 cells and K562 cells, read-out: Ratio IC50

- Drug uptake [1]: Not_active
- Drug uptake [2]: Active
- Drug uptake [6]: Not_active
- Activity (DNA): inactive
- Drug uptake [17]: Active
- IC50 (K562 [18]): 500 nM
Structure (SMILES): CS(=O)(=O)O.N[C@H]1CCN(C(=O)c2cc3c(O)c4c(c(O)c3[nH]2)C(=O)c2ccccc2C4=O)C1
- Activity (K562/4 [3]): 0.1%
- Activity (K562 [4]): 30%
- Activity (K562 [5]): 43.8%
- Activity (K562/4 [7]): 6%
- Activity (K562 [8]): 97%
- viability at 1 µM (K562/4 [9]): 79%
- Activity (K562 [10]): 84%
- Ratio IC50 [11]: 2.4
- Activity (K562 [12]): 42%
- viability at 1 µM (K562 [13]): 11.9%
- viability at 1 µM (K562/4 [14]): 30.1%
- Activity (K562/4 [15]): 30%
- Activity (K562 [16]): 0.5%
- selectivity ratio [19]: 8.4
